Experimental data: article PMC12251482, “Floridoside Phosphotriester Derivatives: Synthesis and Inhibition of Human Neutrophils’ Oxidative Burst” (Molecules, 2025)

Columns and labels:
[1] = tested on: PMA-stimulated human neutrophils; assay: PMA-induced neutrophils' oxidative burst, oxidation of luminol (chemiluminescence); assay type: cell-based
Description: Luminol is easily oxidized by reactive species produced during neutrophils’ oxidative burst, resulting in a chemiluminescent signal. The effect of the compounds under study on the modulation of neutrophil oxidative burst was determined after stimulation with PMA, a known neutrophil activator, because its effect is closely analogous to that obtained during the phagocytic process. Following a previously reported method, in a 96-well plate, neutrophils were incubated in the dark at 37 °C for 5 min with luminol (500 μM) and the tested compounds (10–100 μM) or DMSO (final concentration 4%). Quercetin, a flavonoid known for its anti-inflammatory activity (0.3–5.0 μM), and the inhibitor of NADPH oxidase, DPI (0.01–10 μM), were used as controls. After incubation, PMA (160 nM) was added, and the chemiluminescence was measured in a microplate reader (Synergy HT, BIO-TEK Instruments, Inc., Winooski, VT, USA). Kinetic readings were initiated immediately after cell stimulation. Measurements were taken at the peak of the curve. […] Effects are expressed as the inhibition percentage of luminol oxidation. The results obtained represent at least three independent experiments. […]
3.4 Evaluation of neutrophils' oxidative burst
3.4.1 Oxidation of luminol
Luminol is easily oxidized by reactive species produced during neutrophils’ oxidative burst, resulting in a chemiluminescent signal. The eﬀect of the compounds under study on the modulation of neutrophil oxidative burst was determined after stimulation with PMA, a known neutrophil activator, because its eﬀect is closely analogous to that obtained during the phagocytic process. Following a previously reported method, in a 96-well plate, neutrophils were incubated in the dark at 37 °C for 5 minutes with luminol (500 µM) and the tested compounds (10 - 100 µM) or DMSO (ﬁnal concentration 4%). Quercetin, a ﬂavonoid known for its anti-inﬂammatory activity (0.3 - 5.0 µM), and the inhibitor of NADPH oxidase, DPI (0.01 - 10 µM), were used as positive and negative controls, respectively. After incubation, PMA (160 nM) was added, and the chemiluminescence was measured in a microplate reader (Synergy HT, BIO-TEK Instruments, Inc., Winooski, VT, USA). Kinetic readings were initiated immediately after cell stimulation. Measurements were taken at the […]
peak of the curve. […] Eﬀects are expressed as the inhibition percentage of luminol oxidation. The obtained results represent at least three independent experiments.

[2] = tested on: PMA-stimulated human neutrophils; assay: H2O2 generation by PMA-stimulated neutrophils, oxidation of Amplex Red; assay type: cell-based; details: PMA 160 nM, mean ± SEM
Description: Amplex Red is a highly sensitive and chemically stable fluorescent probe for the extracellular detection of H2O2 [82]. The methodology used previously for monitoring the modulation of the oxidative burst was adapted. In a 96-well plate, neutrophils (2 × 10^6 cells/mL) were incubated in the dark at 37 °C for 5 min with Amplex Red (25 μM), horseradish peroxidase (0.25 U/mL), and the compounds under study (10–100 μM) or DMSO (4%). Quercetin (0.3–5.0 μM) and DPI (0.01–10 μM) were used as controls. After incubation, PMA (160 nM) was added, and the fluorescence (excitation at 530 nm and emission at 590 nm) was measured in a microplate reader (Synergy HT, BioTek Instruments, Inc., Winooski, VT, USA). Obtained values correspond to the slope measured between 5 and 10 min. Effects are expressed as the percentage inhibition of Amplex Red oxidation. The results obtained represent at least three independent experiments. […] 3.4.3 Oxidation of Amplex Red
Amplex Red is a highly sensitive and chemically stable ﬂuorescent probe for the extracellular detection of H2O2 [16]. The methodology used previously for monitoring the modulation of the oxidative burst was adapted.
In a 96-well plate, neutrophils (2 x 10^6 cells/mL) were incubated in the dark at 37 °C for 5 minutes with Amplex Red (25 µM), horseradish peroxidase (0.25 U/mL) , and the compounds under study (10 - 100 µM) or DMSO (4%). Quercetin (0.3 - 5.0 µM) and DPI (0.01 - 10 µM) were used as positive controls for inhibition. After incubation, PMA (160 nM) was added, and the ﬂuorescence (excitation at 530 nm and emission at 590 nm) was measured in a microplate reader (Synergy HT, BioTek Instruments, Inc., Winooski, VT, USA). Obtained values correspond to the slope measured between 5 and 10 minutes. Eﬀects are expressed as the percentage inhibition of Amplex Red oxidation. The obtained results represent at least three independent experiments.
GraphPad Prism 6 software was used to plot the inhibition percentage versus compound concentration curves, enabling the determination of the concentration required to achieve 50% inhibition (IC50). GraphPad Prism 6 software was also used to perform all statistical analyses.
[…] was estimated by applying the one-way analysis (ANOVA), followed by the Bonferroni’s multiple comparisons test. In all cases, p-values < 0.05 were considered statistically signiﬁcant. The results are expressed as mean ± standard error of the mean (SEM).

Q: With “3-Hydroxy-2-(galactopyranosyl)propyl dodecanoate [Compound 1e]” as the compound, how does the IC50 ([1]; PMA 160 nM, mean ± SEM) read?
A: The IC50 was 83 ± 7 µM.

Q: And the “Amplex Red: highest obtained % of inhibition” value ([2]; at 50 µM)?
A: The value was less than 20% ^50µM.

Q: “3-Hydroxy-2-galactopyranosylpropyl dioctyl phosphate [Compound 1b]” was tested. Which “Luminol: highest obtained % of inhibition” value ([1]; at 25 µM, PMA 160 nM, mean ± SEM) did it give?
A: The value was 36 ± 9% ^25µM.

Q: And the “Amplex Red: highest obtained % of inhibition” value ([2]; at 25 µM)?
A: Its value is less than 20% ^25µM.

Q: For `OCC(CO)OC1OC(CO)C(O)C(O)C1O` [Compound 1a, 2-O-D-(galactopyranosyl)glycerol], which inhibition at 100 µM ([1]; Homo sapiens, Neutrophil, at 100 µM, PMA 160 nM, mean ± SEM, read-out: Luminol: highest obtained % of inhibition) is on record?
A: Its inhibition at 100 µM is 34 ± 7%.

Q: What about the “Effect on oxidative burst measured by luminol (in words)” value ([1]; PMA-induced) of the same compound?
A: Its value is “no relevant activity”.

Q: And the inhibition at 50 µM ([2]; Homo sapiens, Neutrophil, at 50 µM, read-out: Amplex Red: highest obtained % of inhibition)?
A: The inhibition at 50 µM was less than 20%.

Q: Which results are given for `CCCCCCCCCCCC(=O)OCC(CO)OC1OC(COP(=O)(OCCN)OCCN)C(O)C(O)C1O` (stereo not drawn) [Compound 1h, 2-(6-(bis(2-Aminoethoxy))phosphoryl)galactopyranosyl-3-hydroxypropyl dodecanoate]?
A: inhibition at 25 µM ([1]; Homo sapiens, Neutrophil, at 25 µM, PMA 160 nM, mean ± SEM, read-out: Luminol: highest obtained % of inhibition): 27 ± 15%; inhibition at 25 µM ([2]; Homo sapiens, Neutrophil, at 25 µM, read-out: Amplex Red: highest obtained % of inhibition): < 20%
